Assay results from US20050037436A1, “Test systems and the use thereof for identifying and characterizing compounds” (priority 2000, published 2005).
Where “and” joins values, the source holds several entries; their conditions need not be identical. Equal values may be shown once. Entries after “also recorded” stand apart in the source; their conditions may differ. Read-outs that look alike come from different tables or passages of the source.

Experiments:
[1] = Ca2+ imaging, arecoline stimulation of untransfected HEK-293 cells; assay type: cell-based, human; conditions: 1 mM arecoline; absence of BAY44-4400
HC110-R [2] = assay type: cell-based, Haemonchus contortus; conditions: for α-LTX-induced increase in [Ca2+]i after preincubation: substance removed, then 75 nM α-LTX
Protocol: (§1) The intracellular free Ca^2+ concentration [Ca^2+]i was measured in COS-7 and HEK293 cells transiently transfected with the HC110-R-EGFP or β2-AR-EGFP construct using the calcium imaging method (see also FIG. 11). In each case 2×10^5 COS-7 and HEK293 cells were applied to a 42 mm cover glass coated with 1% gelatine in 55 mm tissue culture dishes with 5 ml of DMEM medium (with 10% FCS and pen/strep). The transfection took place with the aid of the non-liposomal transfection reagent FuGENE 6 (Roche Molecular Biochemicals, Mannheim). […] Constructs of the HC110-R full-length clone with a GFP tag fused in the correct reading frame, and the complete cDNA of the β2-adrenergic receptor which had likewise been provided with a GFP tag at the 3′ end, were transfected.
(§2) After the incubation, the cells loaded with Fura-2/AM were examined under an inverted microscope (Zeiss, Axiovert, Germany) and, in parallel with this, in a digital imaging fluorescence microscope (PTI) and differentiated into transfected and untransfected cells at a wavelength of 440 and 490 nm respectively. On average, 5-7 transfected and non transfected cells were selected by fixing an ROI (region of interest). The extinction was measured at 340 nm (calcium-bound Fura-2/AM) and 380 nm (free Fura-2/AM), and the emission was measured at 510 nm. Evaluation took place using the Image Master 1.x software by forming the quotient of 340:510 nm, 380:510 nm and the ratio of 340/380:510 nm (background corrected images) as a function of the agent added.
Agents were always added 6 min after starting the measurement by removing an appropriate volume of Na^+ HBS buffer and pipetting the agent directly into the sample vessel for a further 30 to 50 min. The total volume in the sample vessel was constant at 1.5 ml throughout the experiment. […] Addition of CdCl2 and nifedipine took place immediately at the start of the experiment and before addition of α-LTX, and EGTA was added both at the start of the experiment and 4 min after the addition of α-LTX. Dissolved α-LTX was present in a concentration of 300 nM in 50 mM tris-HCl, pH 8.0; BAY 44-4400 was initially dissolved in pure DMSO (stock solutions between 0.004 and 10 μg/ml). The stock solutions were adjusted to the required concentration in the Na^+ HBS buffer. The maximum amount of the active substance BAY 44-4400 which could be dissolved at a final concentration of 0.1% DMSO was found by setting up serial dilutions in Na^+ HBS.
The data were analyzed using the Excel 98 table calculation programme. The results are derived from at least 2-4 reproduced experiments on in each case 4-8 transfected and un-transfected cells.

[3] = target: T1, mouse β2-adrenergic receptor (Mus musculus, UniProt P18762); experiment: Ca2+ imaging of HEK-293 cells transfected with β2-R-GFP (control); assay type: cell-based; conditions: immediately after addition
T1 construct: was fused with a C-terminal EGFP tag by amplifying the full-length cDNA with the P117 mouse 2AR XhoI 5′ primer; expressed in transfected cells; host or cells: HEK-293, transient (pEGFP-N3)
Protocol: as §1, §2
Agents were always added 6 min after starting the measurement by removing an appropriate volume of Na^+ HBS buffer and pipetting the agent directly into the sample vessel for a further 30 to 50 min. The total volume in the sample vessel was constant at 1.5 ml throughout the experiment. […] Addition of CdCl2 and nifedipine took place immediately at the start of the experiment and before addition of α-LTX, and EGTA was added both at the start of the experiment and 4 min after the addition of α-LTX. […]
The data were analyzed using the Excel 98 table calculation programme. […]

HC110-R [4] = experiment: Ca2+ imaging of HEK-293 cells expressing HC110-R-Myc/His; assay type: cell-based, Haemonchus contortus; conditions: stably expressing cells; 400 ng/ml added 6 min before 75 nM α-LTX
nematodes = experiment: Anthelmintic / neuropharmacological activity on nematodes

T1 sequence (P18762 whole entry, the tested form may be a part): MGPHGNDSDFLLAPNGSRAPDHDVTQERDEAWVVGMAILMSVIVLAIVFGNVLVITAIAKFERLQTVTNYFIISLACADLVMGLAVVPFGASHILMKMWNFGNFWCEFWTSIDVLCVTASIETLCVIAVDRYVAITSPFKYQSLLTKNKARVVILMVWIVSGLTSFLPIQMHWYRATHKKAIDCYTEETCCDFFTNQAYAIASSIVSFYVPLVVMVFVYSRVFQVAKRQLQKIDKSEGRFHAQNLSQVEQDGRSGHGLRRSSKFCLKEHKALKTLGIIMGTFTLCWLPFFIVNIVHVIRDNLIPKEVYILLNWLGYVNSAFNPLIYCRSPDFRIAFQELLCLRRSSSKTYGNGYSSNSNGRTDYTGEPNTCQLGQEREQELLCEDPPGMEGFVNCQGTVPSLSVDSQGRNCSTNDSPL

COC(=O)C1=CCCN(C)C1 [arecoline]
arecoline-induced increase in Ca2+ [1]: 27 ± 3.5 nM

COC(=O)C1=C(C)NC(C)=C(C(=O)OC)C1c1ccccc1[N+](=O)[O-] [nifedipine]
second α-LTX-induced increase in [Ca2+]i (HC110-R [2]; 15 μM nifedipine): 30 ± 5.4 nM

CC(C)NCC(O)c1ccc(O)c(O)c1 (stereo not drawn) [isoproterenol]
Ca2+ response to isoproterenol [3]: significant Ca^2+ response

CC(C)C[C@@H]1C(=O)O[C@@H](Cc2ccccc2)C(=O)N(C)[C@H](CC(C)C)C(=O)O[C@@H](C)C(=O)N(C)[C@H](CC(C)C)C(=O)O[C@@H](Cc2ccccc2)C(=O)N(C)[C@H](CC(C)C)C(=O)O[C@@H](C)C(=O)N1C [PF1022-001, cyclo(-L-Lac-D-MeLeu-L-PhLac-D-Me-Leu-)2]
α-LTX-induced increase in [Ca2+]i in presence of substance (HC110-R [4]): 209 ± 33.4 nM
α-LTX-induced increase in [Ca2+]i in presence of substance (HC110-R [2]; 4 ng/ml added 6 min before 75 nM α-LTX): 103 ± 11.5 nM
α-LTX-induced increase in [Ca2+]i in presence of substance (HC110-R [2]; 4 ng/ml added 6 min before 75 nM α-LTX, listed as optical antipode): 67 nM
change in [Ca2+]i after preincubation with substance alone (HC110-R [2]; 4 ng/ml or 400 ng/ml, 90 min preincubation, no α-LTX): no change in [Ca^2+]i
α-LTX-induced increase in [Ca2+]i after preincubation (HC110-R [2]; 4 ng/ml, 90 min preincubation): 102 ± 6.4 nM
α-LTX-induced increase in [Ca2+]i in presence of substance (HC110-R [2]; 400 ng/ml added 6 min before 75 nM α-LTX): 112+14.3 nM
Ca2+ response to substance alone (HC110-R [2]; 400 ng/ml where stated, no α-LTX, up to 50 min or 90 min preincubation): neither the very effective nematicide BAY44-4400 nor the virtually ineffective antipode PF1022-001 induces a Ca^2+ response
α-LTX-induced increase in [Ca2+]i after preincubation (HC110-R [2]; 400 ng/ml, 90 min preincubation): 109 ± 8.4 nM and 110 nM
reduction of α-LTX-induced Ca2+ increase (HC110-R [2]; 400 ng/ml, 90 minutes preincubation, 6 minutes after 75 nM α-LTX): 59%
Ca2+-mediated response to substance alone (HC110-R [2]; 100, 300 or 400 ng/ml and 1 or 10 μg/ml, 50 min, untransfected and HC110-R-GFP-transfected cells): At no concentration was a Ca^2+-mediated response detectable
α-LTX-induced increase in Ca2+ at increased concentration of substance (HC110-R [2]; concentration above 4 ng/ml, added 6 minutes before 75 nM α-LTX): 20 nM
anthelmintic / nematicidal activity in words (nematodes): has no anthelmintic activity; also recorded: virtually ineffective
